Results on 1 compound are retold here after patent publication EP4652998A1, “TREATMENT OF RECEPTOR-INTERACTING PROTEIN KINASE 1- MEDIATED DISEASE WITH ECLITASERTIB” (Technische Universität München, priority 2024, dated 2025).

The structures appear in SMILES notation.

Experiment [1] deals with keratinocyte skin equivalents. The experiment in a line: Three-dimensional keratinocyte skin equivalents stimulated with LP/LE-TCS, secreted cytokines in supernatant. The format is cell-based, human. The following applies: 100 nM inhibitor, 72 h, relative concentration to stimulated control (ZS + LP/LE-TCS) without inhibitor, n=3. As for the experimental part: Three-dimensional keratinocyte skin equivalents were generated as described before Arch Dermatol Res 296, 203-211 (2004)). Briefly, 3.0E^5 primary human keratinocytes were seeded in 500 µL keratinocyte medium with 1.5 mM CaCh into the insert and placed in a well containing the same medium. After two days, keratinocytes were exposed to the air-liquid interface and medium in the surrounding well was supplemented with 50 µg/mL Vitamin C. Nine days after airlift, the skin equivalents were pre-treated for 1 h with RIPK1 inhibitor (100 nM, SANOFI) followed by a stimulation with supernatant mix of lesional T cells from LP and LE patients (1: 10 diluted) in the presence of zVAD (20 µM, Cell Signaling, #60332), SMAC (1 µM, LC Laboratories, #B-9135) and the RIPK1 inhibitor for 72 h. Afterwards, membranes of the fixated skin equivalents were cut out with a scalpel, divided into two pieces, formalin fixed and embedded in paraffin. Primary human lesional T cells were isolated from freshly taken skin biopsies of LP (n=5) and LE (n=3) patients (patient characteristics see Table S 1) by emigration towards an IL-2 gradient followed by expansion with α-CD3/α-CD28 stimulation as described previously (J Invest Dermatol, (2018), Case Rep Pathol 2021, 8819560 (2021)). Supernatants of expanded lesional T cells were generated by 3-day stimulation with 0.75 µg/mL α-CD3 (pre-coated, BD Biosciences) and 0.75 µg/mL soluble α-CD28 (BD Biosciences). A mixture of all 8 lesional supernatants at equimolar ratio was used for stimulation of 3D keratinocyte skin equivalents. Concentrations of key cytokines in the supernatant mix of lesional T cells were determined by a multiplex ELISA (Biorad) and listed in Table S4. Table S4. Composition of lesional LP/LE-TCS mix. Hu = human. Cell free supernatants derived from keratinocyte stimulation experiments or lesional TCS from LP/LE patients were analysed for 27 cytokines, chemokines and growth factors using the Bio-Plex Pro Human Cytokine 27-plex Assay (Bio-Rad Laboratories, Hercules, Calif) according to the manufacturer's recommendation.

The test system of experiment [2] is primary human keratinocytes. The experiment in a line: Multiplex ELISA of cytokines released by keratinocytes after cell death induction. The format is cell-based. The following applies: 24 h. How it is done:
Primary human keratinocytes were obtained from healthy donors by suction blister as reported before (J Allergy Clin Immunol 141, 1320-1333 e1311 (2018)) and donor characteristics are listed in Table S3. Epidermal keratinocytes were cultured in keratinocyte medium (DermaLife Basal Medium supplemented with DermaLife K LifeFactor Kit (Lifeline Cell Technology, LL-0007)) at 37 °C, 5 % CO2 and second- to third-passages were used. At 70-80 % of confluence, keratinocytes were pre-incubated for 1 h with RIPK1 inhibitor (100 nM or as indicated, SANOFI) followed by stimulation with rhIFN-γ (100 ng/ml or as indicated, R&D, #285-IF-100/CF) and rhTNF-α (100 ng/ml or as indicated, R&D, #210_TA/CF) in the presence of zVAD (20 µM, Cell Signaling, #60332), SMAC (1 µM, LC Laboratories, #B-9135) and the RIPK1 inhibitor for 24 h in keratinocyte medium without hydrocortisone.
Cell free supernatants derived from keratinocyte stimulation experiments or lesional TCS from LP/LE patients were analysed for 27 cytokines, chemokines and growth factors using the Bio-Plex Pro Human Cytokine 27-plex Assay (Bio-Rad Laboratories, Hercules, Calif) according to the manufacturer's recommendation.
Background: In an ELISA, binding on a coated surface is turned into a signal by an enzyme label.

Experiment [3] concerns C57BL/6 mice. The experiment in a line: Tnf-α-driven systemic inflammatory response syndrome (SIRS) model, hypothermia. The format is in vivo. The following applies: 15 min after Tnf-α (0.3 mg/kg)/zVAD i.v., 5 h, Tnf-α/zVAD alone -9.3 ± 0.3, vehicle -1.9 ± 0.5. As for the experimental part:
TNF-α driven systemic inflammatory response syndrome (SIRS) model was performed as described before (Immunity 35, 908-918 (2011)). Briefly, male C57BL/6 mice (n=6 per group) were injected into the tail vain with a volume of 125 µl per 25 g mouse of either vehicle (15 % PEG 200; 8.4 % DMSO; 0.6 % NaCl) or a mixture of murine Tnf-α (0.3 mg/kg) and zVAD (6.7 mg/kg) prepared in vehicle. No Tnf-α/zVAD was administered to the vehicle group. 15 min after induction of hypothermia by application of Tnf-α/zVAD mix, animals were orally dosed with RIPK1 inhibitor or GSK`963. Body temperature was monitored every hour using radio-frequency identification (RFID) technology with IPTT-300 transponders that were injected subcutaneously 2-3 days before initiation of the experiment.
Next, the effects of RIPK1 inhibition were assessed in vivo using a murine Tnf-α-driven systemic inflammatory response syndrome model (Immunity 35, 908-918 (2011)). C57BL/6 mice (n=6 per group) were injected of either vehicle (15 % PEG 200; 8.4 % DMSO; 0.6 % NaCL 0.9 %) or a mixture of murine Tnf-α (0.3 mg/kg) and zVAD (16.7 mg/kg) into the tail vein. 15 minutes after induction of hypothermia, animals were orally dosed with the RIPK1 inhibitors SAR443122 or GSK`963, a previously described RIPK1 inhibitor ( Cell Death Discov 1, 15009 (2015)). Body temperature was monitored up to 5 hours using radio-frequency identification technology with IPTT-300 transponders that were injected subcutaneously 2-3 days before initiation of the experiment (Fig. 4A). Animals receiving the Tnf-α/zVAD mixture rapidly responded with a significant decrease of body temperature within 5 hours from 37.3 ± 0.2 °C to 27.9 ± 0.2 °C and a delta temperature of -9.3 ± 0.3 °C (p=0.0002) compared to vehicle (-1.9 ± 0.5 °C). Oral administration of RIPK1 inhibitor led to a dose dependent increase of delta body temperature (1 mg/kg: -8.8 ± 0.5 °C; 5 mg/kg: -7.6 ± 1.2 °C; 15 mg/kg: -3.4 ± 1.3 °C, p=0.0007 to Tnf-α/zVAD) (Fig. 4B).

In the case of `CN1C(=O)[C@@H](NC(=O)c2nnc(Cc3ccccc3)[nH]2)COc2cccnc21` [SAR443122, 5-Benzyl-N-[(3S)-5-methyl-4-oxo-2,3-dihydropyrido[3,2-b][1,4]oxazepin-3-yl]-4H-1,2,4-triazole-3-carboxamide], the “release of CCL20” value in experiment [1] is 29.1 % ± 4.4. Moreover, in experiment [1], the “release of II,-1RA” value is given as 48.9 % ± 18.0. Further, the “release of TNF-α” value in experiment [1] is given as 70.3 % ± 6.3. Also, the “release of IL-8” value in experiment [1] (p=0.4757) is 79.8 % ± 9.6. For the same compound, the “release of IL-1β” value in experiment [2] (IFN-γ + TNF-α + zVAD + SMAC, dose dependent, p=0.0050 for 100 nM, n=4) is on record as “significantly diminished the release of IL-1β to basal levels”. Further, the “IL-1α, IL-1RA, CXCL5, IL-8 (CXCL8), GM-CSF and CCL20” value in experiment [2] (secreted cytokines, 100 ng/ml IFN-γ + TNF-α + zVAD + SMAC, n=3) is “significant reduction”. The delta body temperature was -8.8 ± 0.5 °C in experiment [3] (1 mg/kg oral); -7.6 ± 1.2 °C in experiment [3] (5 mg/kg oral); -3.4 ± 1.3 °C in experiment [3] (15 mg/kg oral, p=0.0007 to Tnf-α/zVAD).
